Results taken from ChEMBL document CHEMBL5233276, “Cathepsin C inhibitors as anti-inflammatory drug discovery: Challenges and opportunities” (Eur J Med Chem, 2021).
Each block holds one molecule with its values, some of them ahead of it. Where a SMILES comes first, the peptide text is derived from it. The star is where a group is joined. CHN2 = [N-]=[N+]=C*

Tests used:
Dipeptidyl peptidase 1 [1] = target: T1, Dipeptidyl peptidase 1 (Homo sapiens, UniProt P53634); test: Inhibition of human Cathepsin C using Gly- L -Phe-p-nitroanilide.HCl as substrate
T1 sequence (P53634 25-134 limits assumed): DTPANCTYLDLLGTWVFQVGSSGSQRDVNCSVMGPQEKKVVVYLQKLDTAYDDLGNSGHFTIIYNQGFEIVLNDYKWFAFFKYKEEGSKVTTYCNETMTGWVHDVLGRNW
T1 sequence (P53634 231-394 limits assumed): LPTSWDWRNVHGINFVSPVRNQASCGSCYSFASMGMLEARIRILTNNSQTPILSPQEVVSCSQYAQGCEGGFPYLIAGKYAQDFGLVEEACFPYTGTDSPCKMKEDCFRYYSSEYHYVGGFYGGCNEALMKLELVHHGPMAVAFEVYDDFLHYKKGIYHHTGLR
T1 sequence (P53634 395-463 limits assumed): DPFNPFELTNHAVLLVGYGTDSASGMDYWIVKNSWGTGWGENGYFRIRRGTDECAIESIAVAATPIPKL

Dipeptidyl peptidase 1 [2] = target: T1, Dipeptidyl peptidase 1; test: Inhibition of human Cathepsin C using Ala-4-[ 125 I]Phe-DMK as substrate preincubated for 30 mins followed by substrate addition measured after 6 to 24 hrs
Dipeptidyl peptidase 1 [3] = target: T1, Dipeptidyl peptidase 1; test: Inhibition of human Cathepsin C using Gly-Phe-paranitroanilide as substrate incubated for 12 mins
Dipeptidyl peptidase 1 [4] = target: T1, Dipeptidyl peptidase 1; test: Inhibition of human Cathepsin C using Z-Arg-Arg-AM as substrate at 3 microM relative to control
Mus musculus = test: Inhibition of Cathepsin C in mouse spleen measured at 5 mg/kg ip, relative to control; format: organism-based
Dipeptidyl peptidase 1 [5] = target: T1, Dipeptidyl peptidase 1; test: Inhibition of Cathepsin C (unknown origin)
Dipeptidyl peptidase 1 [6] = target: T1, Dipeptidyl peptidase 1; test: Inhibition of human Cathepsin C using Gly-Phe-AMC as substrate assessed as kobs/[I]

SMILES: N#[N+][CH-]C(=O)[C@H](Cc1ccccc1)NC(=O)CN
- IC50 (Dipeptidyl peptidase 1 [2]): 50 nM

SMILES: CC[C@H](N)C(=O)N[C@]1(C#N)C[C@@H]1c1ccc(-c2ccc(S(=O)(=O)N3CCN(C)CC3)cc2)cc1
- IC50 (Dipeptidyl peptidase 1 [3]): 15 nM

SMILES: C=CC(=O)Nc1cc2c(Nc3ccc(F)c(Cl)c3)ncnc2cc1OCCCN1CCOCC1 [CANERTINIB]
- IC50 (Dipeptidyl peptidase 1 [5]): 120 nM

SMILES: C[C@H](N)C(=O)N[C@H](/C=C/S(=O)(=O)c1ccccc1)CCc1ccccc1
- ID50 (Dipeptidyl peptidase 1 [4]): 0.1 µM
- Ratio (Dipeptidyl peptidase 1 [6]): 2 10^6/M/s

SMILES: CC[C@@H](/C=C/C(=O)N1CCc2ccccc21)NC(=O)C1(N)CCOCC1
- IC50 (Dipeptidyl peptidase 1 [5]): 1 nM

More lines, main results first:

- IC50 (Dipeptidyl peptidase 1 [1]): 39 µM
SMILES: CC(C)CC(NC(=O)CN)P(=O)(O)CCC(=O)O (stereo unspecified)

- inhibition (Dipeptidyl peptidase 1 [4]): > 90%
SMILES: [N-]=[N+]=CC(=O)[C@H](Cc1ccccc1)NC(=O)CN (H-Gly-Phe-CHN2)
- inhibition (Mus musculus): > 90%

- IC50 (Dipeptidyl peptidase 1 [4]): 4.9 µM
- Ratio (Dipeptidyl peptidase 1 [6]): 2900 M⁻¹ s⁻¹
SMILES: C[C@@H](O)[C@H](N)C(=O)N[C@@H](/C=C/S(C)(=O)=O)CCC(=O)O
